In one assay the target is T1, Recombinant IKKα (Homo sapiens, UniProt O15111).
T1 construct: purchased Millipore, Dundee, UK
T1 sequence (O15111 1-745): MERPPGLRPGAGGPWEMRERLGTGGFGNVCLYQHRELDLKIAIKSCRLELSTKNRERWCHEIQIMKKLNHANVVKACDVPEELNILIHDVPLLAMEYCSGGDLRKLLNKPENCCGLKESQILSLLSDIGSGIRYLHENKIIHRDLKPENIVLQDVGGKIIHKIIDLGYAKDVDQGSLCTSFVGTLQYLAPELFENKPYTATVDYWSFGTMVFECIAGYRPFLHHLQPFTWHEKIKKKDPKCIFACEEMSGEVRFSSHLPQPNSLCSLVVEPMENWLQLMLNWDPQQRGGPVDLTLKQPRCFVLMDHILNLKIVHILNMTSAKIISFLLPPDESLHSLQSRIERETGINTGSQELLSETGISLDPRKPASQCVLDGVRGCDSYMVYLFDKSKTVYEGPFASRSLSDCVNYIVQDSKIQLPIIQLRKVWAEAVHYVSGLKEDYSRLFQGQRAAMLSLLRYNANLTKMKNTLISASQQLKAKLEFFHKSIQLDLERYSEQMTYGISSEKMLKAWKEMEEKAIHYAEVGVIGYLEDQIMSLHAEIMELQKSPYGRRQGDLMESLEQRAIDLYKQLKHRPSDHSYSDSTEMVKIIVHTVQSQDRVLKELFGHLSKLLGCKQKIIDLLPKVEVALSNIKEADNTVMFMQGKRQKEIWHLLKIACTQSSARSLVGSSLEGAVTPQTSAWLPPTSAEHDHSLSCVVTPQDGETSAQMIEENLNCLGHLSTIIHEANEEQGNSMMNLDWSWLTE
Kind of assay: DELFIA IKKα kinase assay (apparent Ki, Cheng-Prusoff). Format: biochemical. Conditions: DELFIA assay (first line of an example). In outline: (§1)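 Recombinant IKKα or IKKβ (37 nM) with 0.375 μM biotinylated IκB-α (Ser32) peptide and 40 μM ATP in 40 mM Tris-HCl pH 7.5, 20 mM MgCl2, 60 min at 30° C. Phospho-substrate captured on streptavidin and detected by anti-phospho-IκB-α plus europium anti-mouse IgG time-resolved fluorescence; apparent Ki via Cheng-Prusoff.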

For the next assay, the target named is T2, Recombinant IKKβ (Homo sapiens, UniProt O14920).
T2 construct: purchased Millipore, Dundee, UK
T2 sequence (O14920 1-756): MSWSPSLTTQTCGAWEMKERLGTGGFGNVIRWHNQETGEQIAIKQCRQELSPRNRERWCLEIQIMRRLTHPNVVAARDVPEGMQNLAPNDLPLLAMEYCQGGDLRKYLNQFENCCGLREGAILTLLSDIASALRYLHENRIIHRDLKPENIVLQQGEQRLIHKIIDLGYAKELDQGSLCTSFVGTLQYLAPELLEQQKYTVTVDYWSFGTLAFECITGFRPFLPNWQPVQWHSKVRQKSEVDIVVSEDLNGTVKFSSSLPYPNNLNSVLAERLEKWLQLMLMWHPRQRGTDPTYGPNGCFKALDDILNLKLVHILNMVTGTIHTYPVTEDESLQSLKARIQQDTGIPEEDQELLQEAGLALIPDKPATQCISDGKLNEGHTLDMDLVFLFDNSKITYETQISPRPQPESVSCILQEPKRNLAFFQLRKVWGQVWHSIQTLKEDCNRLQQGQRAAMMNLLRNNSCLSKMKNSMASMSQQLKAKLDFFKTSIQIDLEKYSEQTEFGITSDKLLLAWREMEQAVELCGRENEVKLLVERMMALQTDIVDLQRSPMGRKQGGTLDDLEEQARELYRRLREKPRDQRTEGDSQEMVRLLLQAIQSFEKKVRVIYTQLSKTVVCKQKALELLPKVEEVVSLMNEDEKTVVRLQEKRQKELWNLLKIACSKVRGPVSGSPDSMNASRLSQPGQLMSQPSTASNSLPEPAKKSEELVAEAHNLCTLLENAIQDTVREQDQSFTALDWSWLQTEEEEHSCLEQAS
The assay can be described thus: DELFIA IKKβ kinase assay (apparent Ki, Cheng-Prusoff). Format: biochemical. The note with it: DELFIA assay (first line of an example). The essentials:
as §1

The structures appear in SMILES notation.

For the molecule `COC(=O)c1cc2c(-c3cc(C#CC(C)(C)C)c4[nH]nc(N)c4c3)ccnc2[nH]1` [Example 299, Methyl 4-(3-amino-7-(3,3-dimethylbut-1-yn-1-yl)-1H-indazol-5-yl)-1H-pyrrolo[2,3-b]pyridine-2-carboxylate], the Ki is 10 nM at Recombinant IKKα and above 370 nM on Recombinant IKKβ.
As to `CC(C)(C)C#Cc1cc(-c2ccnc3[nH]c(C(F)F)nc23)cc2c(N)n[nH]c12` [Example 300, 5-(2-(Difluoromethyl)-3H-imidazo[4,5-b]pyridin-7-yl)-7-(3,3-dimethylbut-1-yn-1-yl)-1H-indazol-3-amine], the Ki at Recombinant IKKα came to 13 nM; on Recombinant IKKβ it was 1340 nM.
The like results for `CC(C)(C)C#Cc1cc(-c2ccnc3[nH]c(C4CCC4)nc23)cc2c(N)n[nH]c12` [Example 301, 5-(2-Cyclobutyl-3H-imidazo[4,5-b]pyridin-7-yl)-7-(3,3-dimethylbut-1-yn-1-yl)-1H-indazol-3-amine] were, in that order, 82 nM and 1240 nM.
The like results for `Cn1ccc(Nc2cc(-c3cc(C#CC(C)(C)C)c4[nH]nc(N)c4c3)ccn2)n1` [Example 302, 7-(3,3-dimethylbut-1-yn-1-yl)-5-(2-((1-methyl-1H-pyrazol-3-yl)amino)pyridin-4-yl)-1H-indazol-3-amine] were, in that order, 62 nM and 148 nM.
As to `Cn1cc(Nc2cc(-c3cc(C#CC(C)(C)C)c4[nH]nc(N)c4c3)ccn2)cn1` [Example 303, 7-(3,3-dimethylbut-1-yn-1-yl)-5-(2-((1-methyl-1H-pyrazol-4-yl)amino)pyridin-4-yl)-1H-indazol-3-amine], the figures for the Ki on Recombinant IKKα and on Recombinant IKKβ were 36 nM and 68 nM, respectively.
Regarding `COC(=O)Nc1cc(-c2cc(C#CC3(O)CCCC3)c3[nH]nc(N)c3c2)ccn1` [Example 304, Methyl (4-(3-amino-7-((1-hydroxycyclopentyl)ethynyl)-1H-indazol-5-yl)pyridin-2-yl)carbamate], the Ki is 64 nM on Recombinant IKKα and 275 nM on Recombinant IKKβ.
Taken in the same sequence, the figures for `Nc1n[nH]c2c(C#CC3(O)CCCC3)cc(-c3ccnc(NC4COC4)c3)cc12` [Example 305, 1-((3-Amino-5-(2-(oxetan-3-ylamino)pyridin-4-yl)-1H-indazol-7-yl)ethynyl)cyclopentan-1-ol] were 96 nM and 1090 nM.
The like results for `CC(C)(C)C#Cc1cc(-c2ccnc3[nH]c(C(F)(F)F)nc23)cc2c(N)n[nH]c12` [Example 308, 7-(3,3-dimethylbut-1-yn-1-yl)-5-(2-(trifluoromethyl)-3H-imidazo[4,5-b]pyridin-7-yl)-1H-indazol-3-amine] were, in that order, 223 nM and above 3330 nM.
Taken in the same sequence, the figures for `CC(C)(C)C#Cc1cc(-c2ccnc(NC#N)c2)cc2c(N)n[nH]c12` [Example 309, N-(4-(3-Amino-7-(3,3-dimethylbut-1-yn-1-yl)-1H-indazol-5-yl)pyridin-2-yl)cyanamide] were 421 nM and 8660 nM.
Turning to `CC(C)(C)C#Cc1cc(-c2ccnc(Nc3cc[nH]n3)c2)cc2c(N)n[nH]c12` [Example 310, 5-(2-((1H-Pyrazol-3-yl)amino)pyridin-4-yl)-7-(3,3-dimethylbut-1-yn-1-yl)-1H-indazol-3-amine], the Ki is 48 nM on Recombinant IKKα and 205 nM on Recombinant IKKβ.
Taken in the same sequence, the figures for `CC(C)(C)C#Cc1cc(-c2ccnc(Nc3cn[nH]c3)c2)cc2c(N)n[nH]c12` [Example 311, 5-(2-((1H-Pyrazol-4-yl)amino)pyridin-4-yl)-7-(3,3-dimethylbut-1-yn-1-yl)-1H-indazol-3-amine] were 10 nM and 280 nM.
Take `Cc1cc(Nc2cc(-c3cc(C#CC(C)(C)C)c4[nH]nc(N)c4c3)ccn2)n[nH]1` [Example 312, 7-(3,3-Dimethylbut-1-yn-1-yl)-5-(2-((5-methyl-1H-pyrazol-3-yl)amino)pyridin-4-yl)-1H-indazol-3-amine]: the values for the Ki at Recombinant IKKα and at Recombinant IKKβ were 45 nM and 210 nM, respectively.
Take `Cc1n[nH]cc1Nc1cc(-c2cc(C#CC(C)(C)C)c3[nH]nc(N)c3c2)ccn1` [Example 313, 7-(3,3-Dimethylbut-1-yn-1-yl)-5-(2-((3-methyl-1H-pyrazol-4-yl)amino)pyridin-4-yl)-1H-indazol-3-amine]: the Ki was 24 nM on Recombinant IKKα and 940 nM at Recombinant IKKβ.
As for `CC(C)(C)C#Cc1cc(-c2ccnc(Nc3nccs3)c2)cc2c(N)n[nH]c12` [Example 314, N-(4-(3-Amino-7-(3,3-dimethylbut-1-yn-1-yl)-1H-indazol-5-yl)pyridin-2-yl)thiazol-2-amine], the results for the Ki at Recombinant IKKα and at Recombinant IKKβ were 911 nM and at least 10000 nM, respectively.
The like results for `Cc1coc(Nc2cc(-c3cc(C#CC(C)(C)C)c4[nH]nc(N)c4c3)ccn2)n1` [Example 315, N-(4-(3-Amino-7-(3,3-dimethylbut-1-yn-1-yl)-1H-indazol-5-yl)pyridin-2-yl)-4-methyloxazol-2-amine] were, in that order, 54 nM and 836 nM.
Taken in the same sequence, the figures for `CC(C)(C)C#Cc1cc(-c2ccnc(Nc3nc(C(F)(F)F)co3)c2)cc2c(N)n[nH]c12` [Example 316, N-(4-(3-Amino-7-(3,3-dimethylbut-1-yn-1-yl)-1H-indazol-5-yl)pyridin-2-yl)-4-(trifluoromethyl)oxazol-2-amine] were 335 nM and above 30000 nM.
Take `Cc1noc(C)c1Nc1cc(-c2cc(C#CC(C)(C)C)c3[nH]nc(N)c3c2)ccn1` [Example 317, N-(4-(3-amino-7-(3,3-dimethylbut-1-yn-1-yl)-1H-indazol-5-yl)pyridin-2-yl)-3,5-dimethylisoxazol-4-amine]: the Ki is 318 nM at Recombinant IKKα and 4040 nM at Recombinant IKKβ.
The like results for `CC(C)(C)C#Cc1cc(-c2ccnc(Nc3c[nH]cn3)c2)cc2c(N)n[nH]c12` [Example 318, 5-(2-((1H-Imidazol-4-yl)amino)pyridin-4-yl)-7-(3,3-dimethylbut-1-yn-1-yl)-1H-indazol-3-amine] were, in that order, 66 nM and 502 nM.
For the molecule `CC(C)(C)C#Cc1cc(-c2ccnc(Nc3nnc[nH]3)c2)cc2c(N)n[nH]c12` [Example 319, 5-(2-((4H-1,2,4-Triazol-3-yl)amino)pyridin-4-yl)-7-(3,3-dimethylbut-1-yn-1-yl)-1H-indazol-3-amine], the Ki at Recombinant IKKα came out at 27 nM; at Recombinant IKKβ, 486 nM.
As to `Cn1nnc(Nc2cc(-c3cc(C#CC(C)(C)C)c4[nH]nc(N)c4c3)ccn2)n1` [Example 320, 7-(3,3-Dimethylbut-1-yn-1-yl)-5-(2-((2-methyl-2H-tetrazol-5-yl)amino)pyridin-4-yl)-1H-indazol-3-amine], the figures for the Ki at Recombinant IKKα and at Recombinant IKKβ were 5 nM and 18.5 nM, respectively.
Turning to `CC(C)(C)C#Cc1cc(-c2ccnc(Nc3ncccn3)c2)cc2c(N)n[nH]c12` [Example 321, 7-(3,3-Dimethylbut-1-yn-1-yl)-5-(2-(pyrimidin-2-ylamino)pyridin-4-yl)-1H-indazol-3-amine], the figures for the Ki on Recombinant IKKα and at Recombinant IKKβ were 202 nM and 4580 nM, respectively.
As to `CC(C)(C)C#Cc1cc(-c2ccnc(NC3CCOC3)c2)cc2c(N)n[nH]c12` (stereo not shown) [Example 322, 7-(3,3-Dimethylbut-1-yn-1-yl)-5-(2-((tetrahydrofuran-3-yl)amino)pyridin-4-yl)-1H-indazol-3-amine], the Ki on Recombinant IKKα was 45 nM; on Recombinant IKKβ, 3130 nM.
Consider `COC(=O)Nc1cc(-c2cc(-c3ccc(O)cc3)c3[nH]nc(N)c3c2)ccn1` [Example 323, Methyl (4-(3-Amino-7-(4-hydroxyphenyl)-1H-indazol-5-yl)pyridin-2-yl)carbamate], for which the results for the Ki at Recombinant IKKα and at Recombinant IKKβ were 9.8 nM and 83 nM, respectively.

The record behind these values is US20250304576A1 (Cancer Research Technology Limited, priority 2022, published 2025).
